Legend:
[1] = test system: normal NK cells expanded with K562-aAPC; experiment: drug sensitivity score (DSS) (DSS units); higher = more sensitive; extreme values may be limits of the assay; details: 72 h; IL-2 2.5 ng/mL
Experimental: (§1)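 Drug sensitivity and resistance testing on K562-aAPC-expanded normal NK cells: 5 concentrations (10-fold steps over a 10,000-fold range), 72 h at 37 °C, viability by CellTiter-Glo normalised to DMSO and benzethonium chloride controls; DSS from the fitted curve.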

YT (IL-2 2.5 ng/mL) [2] = experiment: percent inhibition of viability; higher = more inhibition; details: 72 h
KHYG-1 (IL-2 2.5 ng/mL) [3] = experiment: as above; details: 72 h
[4] = test system: normal primary NK cells, pool 2 (3 donors) (IL-2 2.5 ng/mL); experiment: as above; details: 72 h
NK-YS (IL-2 2.5 ng/mL) [5] = experiment: as above; details: 72 h
[6] = test system: normal primary NK cells, pool 1 (3 donors), resting (IL-2 0 ng/mL); experiment: as above; details: 72 h
[7] = test system: normal primary NK cells, pool 3 (3 donors) (IL-2 2.5 ng/mL); experiment: as above; details: 72 h
KAI3 (IL-2 2.5 ng/mL) [8] = experiment: as above; details: 72 h
NK-92 (IL-2 2.5 ng/mL) [9] = experiment: as above; details: 72 h
DERL-7 (IL-2 2.5 ng/mL) [10] = experiment: as above; details: 72 h
NKL (IL-2 2.5 ng/mL) [11] = experiment: as above; details: 72 h
[12] = test system: normal primary NK cells, pool 1 (3 donors) (IL-2 2.5 ng/mL); experiment: as above; details: 72 h
IMC-1 (IL-2 20 ng/mL) [13] = experiment: as above; details: 72 h
SNK-6 (IL-2 2.5 ng/mL) [14] = experiment: as above; details: 72 h
YT (IL-2 2.5 ng/mL) [15] = experiment: drug sensitivity score (DSS) (DSS units); higher = more sensitive; extreme values may be limits of the assay; details: 72 h
KHYG-1 (IL-2 2.5 ng/mL) [16] = experiment: as above; details: 72 h
[17] = test system: normal primary NK cells, pool 2 (3 donors) (IL-2 2.5 ng/mL); experiment: as above; details: 72 h
NK-YS (IL-2 2.5 ng/mL) [18] = experiment: as above; details: 72 h
[19] = test system: normal primary NK cells, pool 1 (3 donors), resting (IL-2 0 ng/mL); experiment: as above; details: 72 h
[20] = test system: normal primary NK cells, pool 3 (3 donors) (IL-2 2.5 ng/mL); experiment: as above; details: 72 h
KAI3 (IL-2 2.5 ng/mL) [21] = experiment: as above; details: 72 h
NK-92 (IL-2 2.5 ng/mL) [22] = experiment: as above; details: 72 h
DERL-7 (IL-2 2.5 ng/mL) [23] = experiment: as above; details: 72 h
NKL (IL-2 2.5 ng/mL) [24] = experiment: as above; details: 72 h
[25] = test system: normal primary NK cells, pool 1 (3 donors) (IL-2 2.5 ng/mL); experiment: as above; details: 72 h
IMC-1 (IL-2 20 ng/mL) [26] = experiment: as above; details: 72 h
SNK-6 (IL-2 2.5 ng/mL) [27] = experiment: as above; details: 72 h
[28] = test system: normal NK cells expanded with K562-aAPC; experiment: percent inhibition of viability; higher = more inhibition; details: 72 h, IL-2 2.5 ng/mL
Experimental: as §1

COc1ccc(C2=N[C@@H](c3ccc(Cl)cc3)[C@@H](c3ccc(Cl)cc3)N2C(=O)N2CCNC(=O)C2)c(OC(C)C)c1 [Nutlin-3] (max concentration tested 10000 nM)
Details	drug sensitivity score
DERL-7 (IL-2 2.5 ng/mL) [23]	9.5
IMC-1 (IL-2 20 ng/mL) [26]	0.61
KAI3 (IL-2 2.5 ng/mL) [21]	7.56
KHYG-1 (IL-2 2.5 ng/mL) [16]	0.02
NK-92 (IL-2 2.5 ng/mL) [22]	2.8
NK-YS (IL-2 2.5 ng/mL) [18]	9.5
NKL (IL-2 2.5 ng/mL) [24]	3.64
SNK-6 (IL-2 2.5 ng/mL) [27]	10.1
YT (IL-2 2.5 ng/mL) [15]	6.81
[1]	8.63
[17]	7.31
[19]	14.5
[20]	4.75
[25]	9.16

percent inhibition of viability [%]
Details	1 nM	10 nM	100 nM	1000 nM	10000 nM
DERL-7 (IL-2 2.5 ng/mL) [10]	0.15	0.54	7.5	29	99.3
IMC-1 (IL-2 20 ng/mL) [13]	-5.54	-4.03	-1.5	-1.01	21.2
KAI3 (IL-2 2.5 ng/mL) [8]	-3.27	-5.08	7.55	34.8	60.6
KHYG-1 (IL-2 2.5 ng/mL) [3]	-6.71	-9.4	-3.85	-2.52	12.2
NK-92 (IL-2 2.5 ng/mL) [9]	-20.5	0.59	-14.7	13	28.5
NK-YS (IL-2 2.5 ng/mL) [5]	-2.06	-4.19	0.64	37.4	83.9
NKL (IL-2 2.5 ng/mL) [11]	3.59	-3.19	6.18	9.61	42.5
SNK-6 (IL-2 2.5 ng/mL) [14]	-8.93	-12	-4.65	42.5	85.7
YT (IL-2 2.5 ng/mL) [2]	-1.48	-2.54	1.47	19.9	69.5
[4]	-11.5	9.9	0.22	13.9	90
[6]	-5.64	8.67	11.7	69	93.8
[7]	-6.84	5.45	0.48	4.02	75.6
[12]	-5.38	6.43	9.32	29	96.8
[28]	-4.98	0.87	1.74	19.4	99.2

COc1cccc2cc(-c3nc([C@H]4CC[C@H](C(=O)O)CC4)n4ncnc(N)c34)[nH]c12 [OSI-027] (max concentration tested 10000 nM)
Details	drug sensitivity score
DERL-7 (IL-2 2.5 ng/mL) [23]	8.48
IMC-1 (IL-2 20 ng/mL) [26]	0.09
KAI3 (IL-2 2.5 ng/mL) [21]	7.92
KHYG-1 (IL-2 2.5 ng/mL) [16]	6.5
NK-92 (IL-2 2.5 ng/mL) [22]	8.91
NK-YS (IL-2 2.5 ng/mL) [18]	5.77
NKL (IL-2 2.5 ng/mL) [24]	10.9
SNK-6 (IL-2 2.5 ng/mL) [27]	7.2
YT (IL-2 2.5 ng/mL) [15]	6.33
[1]	4.91
[17]	4.93
[19]	2.18
[20]	4.17
[25]	2.65

percent inhibition of viability [%]
Details	1 nM	10 nM	100 nM	1000 nM	10000 nM
DERL-7 (IL-2 2.5 ng/mL) [10]	7.51	-0.27	4.62	33.3	81.3
IMC-1 (IL-2 20 ng/mL) [13]	-0.57	-5.79	-6.31	-24.6	15.6
KAI3 (IL-2 2.5 ng/mL) [8]	-2.08	0.41	9.85	34.9	65.5
KHYG-1 (IL-2 2.5 ng/mL) [3]	-1.84	-0.78	4.77	18.4	68.1
NK-92 (IL-2 2.5 ng/mL) [9]	2.75	14.2	11.7	37.3	67
NK-YS (IL-2 2.5 ng/mL) [5]	-5.3	-6.22	3.24	12.3	67.8
NKL (IL-2 2.5 ng/mL) [11]	-11.8	-3.21	15.2	49.5	66
SNK-6 (IL-2 2.5 ng/mL) [14]	4.93	11.4	9.18	31.7	55.4
YT (IL-2 2.5 ng/mL) [2]	2.96	3.52	7.55	26.5	62.3
[4]	-8.05	-2.56	3.22	27.2	24.8
[6]	-7.98	3.28	-0.52	18.1	13
[7]	-5.61	1.81	2.65	24.4	23.8
[12]	-9.22	7.53	-13.9	16.4	24.5
[28]	-6.22	-5.68	3.76	21.5	48.2

O=C(Nc1ccc(OC(F)(F)F)cc1)c1sccc1NCc1ccnc2ccccc12 [OSI-930] (max concentration tested 2500 nM)
Details	drug sensitivity score
DERL-7 (IL-2 2.5 ng/mL) [23]	0.66
IMC-1 (IL-2 20 ng/mL) [26]	0.67
KAI3 (IL-2 2.5 ng/mL) [21]	0
KHYG-1 (IL-2 2.5 ng/mL) [16]	0
NK-92 (IL-2 2.5 ng/mL) [22]	1.27
NK-YS (IL-2 2.5 ng/mL) [18]	0
NKL (IL-2 2.5 ng/mL) [24]	0
SNK-6 (IL-2 2.5 ng/mL) [27]	8.62
YT (IL-2 2.5 ng/mL) [15]	0
[1]	0
[17]	0
[19]	0.24
[20]	0
[25]	0

percent inhibition of viability [%]
Details	0.25 nM	2.5 nM	25 nM	250 nM	2500 nM
DERL-7 (IL-2 2.5 ng/mL) [10]	-3.26	4.29	2.35	12.1	10.2
IMC-1 (IL-2 20 ng/mL) [13]	0.84	-1.87	4.98	6.89	18.2
KAI3 (IL-2 2.5 ng/mL) [8]	3.63	-6.37	-2.54	-7.75	4.42
KHYG-1 (IL-2 2.5 ng/mL) [3]	0.6	1.74	3.75	5.69	7.1
NK-92 (IL-2 2.5 ng/mL) [9]	3.89	-3.38	-8.56	11.8	16.6
NK-YS (IL-2 2.5 ng/mL) [5]	-1.68	-3.28	-0.75	3.05	10.1
NKL (IL-2 2.5 ng/mL) [11]	-6.01	-14.6	-5.82	-10.2	7.79
SNK-6 (IL-2 2.5 ng/mL) [14]	2.35	8.65	27.3	16.9	25.4
YT (IL-2 2.5 ng/mL) [2]	-0.61	-3.29	0.94	1	10.3
[4]	-8.8	-7.72	0	7.78	8.04
[6]	-4.47	-4.58	-9.07	4.32	12.1
[7]	-8.79	-12.1	-5.29	4.46	8.54
[12]	-1.64	6.46	-0.65	1.58	5.43
[28]	0.01	-3.72	-1.42	0.82	7.54

From the supplement of paper PMC5908809
